In ChEMBL document CHEMBL2331465, “The discovery of novel isoflavone pan peroxisome proliferator-activated receptor agonists” (Bioorg Med Chem, 2013):
Active and inactive are the calls of the source. The calls are words filed in the database; no cut-off is given here.

Tests used:
[1] = Cytotoxicity against human HEK293 cells assessed as cell viability at 100 uM measured after 48 hrs by MTS assay relative to vehicle control; format: cell-based; conditions: read-out: Activity
[2] = Cytotoxicity against human HEK293 cells assessed as cell viability at 10 uM measured after 48 hrs by MTS assay relative to vehicle control; format: cell-based; conditions: read-out: Activity
[3] = molecular target: T1, Peroxisome proliferator-activated receptor gamma (Homo sapiens, UniProt P37231); assay: Agonist activity at human PPARgamma expressed in HEK293 cells cotransfected with PPREx4-TK-luc assessed as activation of luciferase activity measured after 48 hrs by transactivation assay; format: cell-based
T1 sequence (P37231 whole entry): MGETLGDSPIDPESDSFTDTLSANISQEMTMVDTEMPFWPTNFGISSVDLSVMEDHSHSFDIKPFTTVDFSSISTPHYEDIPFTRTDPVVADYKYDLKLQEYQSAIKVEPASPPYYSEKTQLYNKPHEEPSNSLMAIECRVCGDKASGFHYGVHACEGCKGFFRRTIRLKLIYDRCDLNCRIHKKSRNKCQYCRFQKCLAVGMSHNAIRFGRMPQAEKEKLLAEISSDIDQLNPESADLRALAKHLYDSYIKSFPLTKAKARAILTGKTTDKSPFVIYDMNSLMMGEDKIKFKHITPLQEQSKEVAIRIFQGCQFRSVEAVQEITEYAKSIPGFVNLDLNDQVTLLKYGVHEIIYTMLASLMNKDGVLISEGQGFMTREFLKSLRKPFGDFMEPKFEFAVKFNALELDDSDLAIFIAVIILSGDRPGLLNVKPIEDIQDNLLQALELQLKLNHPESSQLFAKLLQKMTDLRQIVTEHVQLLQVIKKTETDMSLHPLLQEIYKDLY

[4] = molecular target: T2, Peroxisome proliferator-activated receptor delta (Homo sapiens, UniProt Q03181); assay: Agonist activity at human PPARdelta expressed in HEK293 cells cotransfected with PPREx4-TK-luc assessed as activation of luciferase activity measured after 48 hrs by transactivation assay; format: cell-based
T2 sequence (Q03181 whole entry): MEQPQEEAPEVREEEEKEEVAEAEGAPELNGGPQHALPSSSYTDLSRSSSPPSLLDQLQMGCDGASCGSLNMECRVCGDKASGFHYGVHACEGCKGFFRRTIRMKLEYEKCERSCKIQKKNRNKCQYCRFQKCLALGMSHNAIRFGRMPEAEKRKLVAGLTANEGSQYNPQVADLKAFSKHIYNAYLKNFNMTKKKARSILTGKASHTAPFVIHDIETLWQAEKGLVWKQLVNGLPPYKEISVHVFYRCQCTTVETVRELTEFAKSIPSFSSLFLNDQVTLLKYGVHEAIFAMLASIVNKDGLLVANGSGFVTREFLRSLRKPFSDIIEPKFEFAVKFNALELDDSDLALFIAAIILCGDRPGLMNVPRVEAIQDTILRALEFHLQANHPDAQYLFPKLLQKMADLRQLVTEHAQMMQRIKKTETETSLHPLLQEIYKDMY

[5] = molecular target: T3, Peroxisome proliferator-activated receptor alpha (Homo sapiens, UniProt Q07869); assay: Agonist activity at human PPARalpha expressed in HEK293 cells cotransfected with PPREx4-TK-luc assessed as activation of luciferase activity measured after 48 hrs by transactivation assay; format: cell-based
T3 sequence (Q07869 whole entry): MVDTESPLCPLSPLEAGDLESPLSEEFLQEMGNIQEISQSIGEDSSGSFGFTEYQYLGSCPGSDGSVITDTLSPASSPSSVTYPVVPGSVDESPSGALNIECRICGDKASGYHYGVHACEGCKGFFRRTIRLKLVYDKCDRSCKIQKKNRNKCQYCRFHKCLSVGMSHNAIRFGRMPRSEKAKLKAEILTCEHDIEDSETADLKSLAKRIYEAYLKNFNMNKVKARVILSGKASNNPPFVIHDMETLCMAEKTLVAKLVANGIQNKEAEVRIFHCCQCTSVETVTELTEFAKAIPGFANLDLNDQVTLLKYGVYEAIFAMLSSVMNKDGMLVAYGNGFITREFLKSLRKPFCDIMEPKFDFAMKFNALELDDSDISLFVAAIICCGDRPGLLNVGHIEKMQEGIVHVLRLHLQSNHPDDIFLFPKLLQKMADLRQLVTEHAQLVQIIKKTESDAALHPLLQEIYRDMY

Rattus norvegicus [6] = assay: Antimetabolic syndrome activity in Zucker […] rat assessed as inhibition of fatty liver disease in measured as liver mass at 3 mg/kg (reference value: 8.6 g); format: functional
Rattus norvegicus [7] = assay: Antidiabetic activity against Zucker diabetic fatty rat assessed as blood glucose level at 3 mg/kg (reference value: 124 mg/dL); format: functional
Rattus norvegicus [8] = assay: Antidiabetic activity against Zucker diabetic fatty rat assessed as blood glucose level at 3 mg/kg measured after 2 hrs of glucose intake by oral glucose tolerance test (reference value: 185 mg/dL); format: functional
Rattus norvegicus [9] = assay: Reduction in Zucker diabetic fatty rat body weight gain at 3 mg/kg/day measured after 6 weeks (reference value: 103 g); format: functional
Rattus norvegicus [10] = assay: Antimetabolic syndrome activity in Zucker diabetic fatty rat assessed as inhibition of fatty liver disease in measured as liver mass at 3 mg/kg (reference value: 23.9 g); format: functional
Rattus norvegicus [11] = assay: Antidiabetic activity against Zucker diabetic fatty rat assessed as blood glucose level at 3 mg/kg after 30 mins (reference value: 270 mg/dL); format: functional
Rattus norvegicus [12] = assay: Reduction in Zucker diabetic fatty rat body weight gain at 3 mg/kg/day measured after 3 weeks; format: functional, organism-based

| Compound | viability at 48 h, 100 µM [1] [%] | viability at 48 h, 10 µM [2] [%] | EC50 [3] [µM] | EC50 [4] [µM] | EC50 [5] [µM] | Activity (Rattus norvegicus [6]) [g] | Activity (Rattus norvegicus [7]) [mg/dL] | Activity (Rattus norvegicus [8]) [mg/dL] | Activity (Rattus norvegicus [9]) [g] | Activity (Rattus norvegicus [10]) [g] | Activity (Rattus norvegicus [11]) [mg/dL] | Activity (Rattus norvegicus [12]) |
| --- | --- | --- | --- | --- | --- | --- | --- | --- | --- | --- | --- | --- |
| CC(C)(Oc1ccc(CCNC(=O)c2ccc(Cl)cc2)cc1)C(=O)O [BEZAFIBRATE] | 73.7 | 76 | 70.4 | – | – | – | – | – | – | – | – | – |
| COc1cc(OC)cc(-c2coc3cc(O)ccc3c2=O)c1 | – | 80 | – | 17.2 | – | – | – | – | – | – | – | – |
| O=c1c(-c2ccc(F)cc2)coc2cc(O)ccc12 | – | 78 | – | 24.4 | 23.1 | – | – | – | – | – | – | – |
| O=c1c(-c2ccc3c(c2)OCO3)coc2cc(O)ccc12 [PSEUDOBAPTOGENIN] | – | > 90 | – | 22.3 | – | – | – | – | – | – | – | – |
| COc1cccc(-c2coc3cc(O)ccc3c2=O)c1 | 74 | > 90 | – | 12.4 | 33.1 | 8.3 | 113 | 154 | 94 | 19.7 | 247 | Active |
